From patent US10413583B2, “Synthetic substrates for enzymes that catalyze reactions of modified cysteines and related methods” (The University of Chicago, priority 2016, dated 2019) come the findings set out here.

The target of one assay is T1, APT1 (Homo sapiens, UniProt O75608).
T1 construct: His-tag; made in house; host or cells: E. coli ROSETTA DE3
The experiment in a line: Enzyme kinetics analysis of DPP-5 with APT1. It counts as biochemical. The note with it: APT1 50 nM. The method, then: 150 μL of 1 M DTT in HEPES buffer was added to different concentrations of 150 μL DPP-5 and then the stable fluorescence intensities of totally deacylated product were measured by the methods described above. Fluorescence intensity of per molar deacylated-product was then calculated by linear least-squares fitting of plots of fluorescence vs. concentration. For Michaelis-Menten constant, in vitro kinetics curves were obtained for different final concentrations of DPP-5 in HEPES with 50 nM APT1 or APT2. The fluorescence intensities measured were then normalized to the concentrations of product by fluorescence-intensity-permolar-product. A Lineweaver-Burk plot was used to calculate the Michaelis constant, KM, and the maximum velocity, Vmax, which is proportional to kcat by concentration of APT1 or APT2. All fits have R^2 values of >0.99.

In a further assay the test system is HEPG2 cells. Nature of the assay: Fluorescence imaging of RDP-1 with HEPG2 cells (PalmB, palmitate). Type of assay: cell-based, human. The conditions noted are these: 40 μM PalmB 30 min, 1 μM RDP-1. How it is done: HEPG2 were plated with […] of DMEM (Gibco, Gaithersburg, Md., United States of America; High Glucose, Glutamax, 10% FBS) a four well chambered imaging dish (D35C4-20-1.5-N, Cellvis, Mountain View, Calif., United States of America) which were precoated with 4 μg Poly-D-lysine (30-70 KDa, Alfa Aesar, Haverhill, Mass., United States of America) for 2 h at room temperature or overnight at 4° C. and grown to ca. 80% confluence prior to imaging. 30 min before the addition of the RDP, the cell culture media was removed and cells were washed with 500 μL of serum-free DMEM (Gibco, Gaithersburg, Md., United States of America; High Glucose, Glutamax, no FBS). The media was then replaced with 500 μL of serum-free DMEM containing 100 nM Mitotracker Deep Red (Thermo Fisher Scientific, Waltham, Mass., United States of America) to assist in focusing and processing) and either 0.1% DMSO carrier as a control or Palm B in DMSO and incubated for 30 min at 37° C. and 5% CO2. The media was removed, the cells were washed with 500 μL of Live Cell Imaging Solution (Thermo Fisher Scientific, Waltham, Mass., United States of America), and 500 μL of 1 μM RDP-1 along with the Palm B or DMSO as control in Live Cell Imaging Solution was added to each well. […]

T1 sequence (O75608 whole entry): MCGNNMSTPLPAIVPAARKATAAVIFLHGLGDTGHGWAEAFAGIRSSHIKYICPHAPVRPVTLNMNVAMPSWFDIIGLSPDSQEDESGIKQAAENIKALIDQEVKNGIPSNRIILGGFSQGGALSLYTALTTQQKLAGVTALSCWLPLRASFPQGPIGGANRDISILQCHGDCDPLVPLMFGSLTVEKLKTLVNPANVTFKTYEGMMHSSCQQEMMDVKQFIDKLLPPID

In turn, `CCCCCCCCCCCCCCCC(=O)SC[C@@H](C(=O)NC)N(C)C(=O)Oc1ccc2c(c1)Oc1cc(N3CCN(C(=O)CCC(=O)O)CC3)ccc1C21OC(=O)c2ccccc21` (stereo partly drawn) [DPP-5] yielded a Kcat on APT1 of 0.044 s⁻¹. For the same molecule, the Km (as a rule, the substrate concentration at which the rate is half of its maximum) at APT1 (Lineweaver-Burk) was determined as 1.6 µM.

For the molecule `CCCCCCCCCC[C@@H]1C(=O)O[C@H]1CCc1ccc(OC)c(OC)c1` [PalmB, palmostatin B], the “decrease in deacylation of RDP-1” value with HEPG2 cells was “about 60%”.
